Earlier results as cited in patent US7198895B2, “In vitro cell-based methods for biological validation and pharmacological screening of chemical entities and biologicals” (priority 2000, dated 2007).

Experiments:
[1] = treated subjects
HepG2 cells = HepG2 cells exposed to cis-platinum; ref (17)

For `CCNC(C)Cc1cccc(C(F)(F)F)c1` (stereo not drawn) [Fenfluramine], the life-threatening adverse event [1] is listed as “valvular fibrosis”.
For `N.N.[Cl][Pt][Cl]` [cis-platinum], the “number of genes consistently differentially expressed” value (HepG2 cells) is listed as 14 genes and the “number of genes differentially expressed” value (HepG2 cells) is listed as no less than 200 genes.
